Experimental data from US20090054368A1, “Substituted gemini surfactant compounds” (University of Saskatchewan, priority 2007, published 2009).
“Also recorded” adds a separate entry of the source.

Key:
[1] = Size (hydrodynamic radius) and zeta potential as a function of pH; format: physicochemical; settings: PGL complexes
Description: Determinations of size (hydrodynamic radius, RH) and zeta potential (ζ) as a function of pH were carried out using a Malvern Instruments (Worcestershire, UK) ZetaSizer NanoZs with MPT-2 auto-titrator attachment. 10 mL of the desired sample was placed in the titration cell of the auto-titrator and samples were titrated (in 0.2-0.5 pH unit increments) with 0.1 M NaOH and 0.1 M HCl over the desired pH range. Size and zeta potential measurement were made in triplicate at each pH point, and the reported values represent the average±standard error. pH titrations of aqueous gemini surfactant solutions were made at a surfactant concentration of 2.00 mM, above the critical micelle concentration in all cases.
(§1) Solutions for size, zeta potential, and circular dichrosicm (CD) measurements were prepared, in larger volumes, as described above for the transfection experiments using a pGTmCMV.IFN-GFP plasmid DNA, previously constructed in our lab. Solutions containing only surfactant and plasmid DNA were prepared by addition of an aliquot of stock plasmid DNA to the gemini surfactant solution to a charge ratio of 1:10 (DNA:surfactant).

cultured cells = assay: Viability of cells following transfection; format: cell-based; settings: for cell viability / toxicity (in words): after transfection with plasmid DNA-gemini surfactant-DOPE
Description: Ideal transfection reagents are minimally toxic and/or disruptive to cells. Accordingly, the N-substituted surfactants were tested for toxicity in cultured cells. The viability of cells following transfection with either plasmid DNA-gemini surfactant-DOPE or Lipofectamine Plus are shown in FIG. 3. The aza-substituted surfactants 12-5N-12, 12-8N-12, and 12-7N-12 had similar toxicity compared to the Lipofectamine Plus reagent, with cell viability around 80% of the controls (i.e., no treatment or plasmid DNA alone; p>0.05).

[2] = system: COS-7 African Green monkey kidney fibroblast cells; assay: Transfection assay (luciferase production after transfection with plasmid DNA-gemini surfactant complexes); format: cell-based; settings: PG complexes, complexed with DNA in the absence of helper lipid (DOPE)
[3] = Small angle X-ray scattering (SAXS) of plasmid DNA-gemini surfactant-DOPE complexes; format: physicochemical; settings: plasmid DNA-gemini surfactant-DOPE complexes
Description: SAXS measurements were carried out at beamline X21 at the National Synchrotron Light Source at Brookhaven National Laboratory. Beamline X21 is based on a wiggler source, with a helium gas-cooled Si(111) monochromator selecting the photon energy. The X-ray beam is focused by a toroidal mirror into the experimental station. Three pairs of precision slits, positioned at 4 m, 1 m, and 5 cm upstream of the sample, define the beam. The scattering pattern is recorded using a 13 cm Mar CCD detector (Mar USA, Evanston, Ill.) located 1.26 m (calibrated with the scattering pattern of silver behenate) downstream of the sample. The measurements were performed with 12 KeV x-rays and the data covered a q-range from 0.008 Å^−1 to 0.375 Å^−1. All beam paths are under vacuum, except at the sample position, where the sample is in air, and kapton windows terminate the vacuum beam paths. Samples were loaded into 1.5 mm capillaries (Charles Supper #15-BG, Natick Mass.) and data recorded at room temperature. All spectra were processed to remove background contributions by subtracting the scattering profile obtained for a water-filled capillary. Peak fitting was carried out using the open-sources software package “fityk” (available at http://www.unipress.waw.pl/fityk/; last accessed on Jul. 5, 2007) using multiple Gaussian functions.
Solutions for SAXS analysis were prepared by addition of appropriate amounts of stock surfactant, DNA, and DOPE solutions, followed by sonication (to ensure complete mixing) where appropriate. The pGTmCMV.IFN-GFP plasmid DNA was used in the SAXS studies. The final concentrations of DNA and DOPE were 0.075 mM (50 μg/mL) and 1.00 mM (0.75 mg/mL), respectively. The concentration of gemini surfactant was adjusted as needed to obtain the desired 1:10 DNA:surfactant charge ratio. Preliminary x-ray scattering studies indicated these concentrations to be too dilute to give good scattering signals; as a result, the samples were concentrated 5× by evaporation.

[4] = from reference [24]; cited from earlier work
plasmid DNA = assay: Circular dichroism of plasmid DNA-gemini surfactant complexes; format: physicochemical; settings: with or without DOPE
Description: CD spectra were obtained by using an Applied Photo Physics π*180 instrument (Leatherhead, UK) with a 4 nm slit, at room temperature.
as §1

[5] = system: COS-7 African Green monkey kidney fibroblast cells; assay: Transfection assay (luciferase production after transfection with plasmid DNA-gemini surfactant complexes); format: cell-based
Description: COS-7 African Green monkey kidney fibroblast cells (ATCC CRL1651) were prepared for transfection in antibiotic and 10% fetal bovine serum supplemented minimal Eagle's medium (MEM). The day before transfection, 5×10^4 cells/well were seeded in 24-well plates (Greiner Labortechnik GmbH, Germany). The supplemented MEM was changed to MEM one hour prior to transfection.
The pMASIA.Luc plasmid DNA was used at a concentration of 0.2 μg/well for transfection. The transfection mixtures were prepared as follows: 0.2 μg of plasmid DNA was mixed with aliquots of gemini surfactant solution to obtain a plasmid DNA:gemini surfactant charge ratio of 1:10 and incubated at room temperature for 15 minutes. To this mixture, 25 μL of DOPE liposomes were added. The transfection mixtures were incubated for 30 minutes at room temperature prior to transfection and added to the cells, dropwise. The plates were incubated for 5 hours at 37° C. in a CO2 incubator. Dc-Chol (30-[N—(N′,N′-Dimethylaminoethane)-carbamoyl]cholesterol) was used for comparison and, as a positive control, cells were also transfected with Lipofectamine Plus™ Reagent (Invitrogen Life Technologies, Carlsbad, Calif.), according to the manufacturer's protocol, with 0.2 μg of plasmid DNA per well.
Luciferase production was quantified using the Promega Steady-Glo™ luciferase assay system. Luminescence was monitored using a Turner Biosystems (Sunnyvale, Calif., USA) Reporter microplate luminometer. Statistical analysis was performed using ANOVA and Tukey's multiple comparison test. […] Equal variances were tested using Bartlett's test, and normality by the D'Agostino & Pearson omnibus normality test.

[6] = Average membrane charge density calculation for plasmid DNA-gemini surfactant-DOPE nanoparticles; format: physicochemical; settings: calculated from head group areas
[7] = previous work [11]; cited from earlier work

Row | Compound | pH of transition in particle size and zeta potential [1] | cell viability / toxicity (in words) (cultured cells) | cell viability (cultured cells; after transfection with plasmid DNA-gemini surfactant-DOPE or Lipofectamine Plus, relative to controls (no treatment or plasmid DNA alone)) | transfection efficiency (in words) [2] | d-spacing of main scattering peak [3] [Å] | Head group area a0 [4] [nm^2/molecule] | DNA distortion from CD spectrum (in words) (plasmid DNA) | increase in transfection compared to the corresponding aza-substituted compound [5] [fold] | transfection efficiency (in words) ([5]; PGL complexes, with DOPE added) | transfection efficiency ([5]; PGL system (plasmid DNA-gemini surfactant-DOPE), charge ratio 1:10) | increase in transfection compared to an un-substituted gemini surfactant ([5]; p<0.01) [fold] | membrane charge density σM [6] | transfection efficiency within the 12-s-12 series, s=3-8 (in words) [7] | phase / morphology of lipid bilayers from scattering pattern (in words) [3]
1 | CCCCCCCCCCCC[N+](C)(C)CCCNCCC[N+](C)(C)CCCCCCCCCCCC.[Br-].[Br-] [12-7NH-12, 1,9-bis(dodecyl)-1,1,9,9-tetramethyl-5-imino-1,9-nonanediammonium dibromide] | 5.5 | not statistically significantly different from that of the 12-5N-12 and 12-8N-12 | about 70% | significantly higher level of transfection efficiency | 59.4 | 1.56 ± 0.04 | greatest DNA distortion | 3 | enhanced transfection efficiency compared to the un-substituted surfactant, 12-3-12; also recorded: higher levels of transfection efficiency compared to the non-substituted gemini surfactant 12-3-12; also recorded: comparable to that of Lipofectamine Plus | 6.7±0.5 ng luciferase/2×10^4 cells | 9 | 0.920 ×10^−2 e/Å^2 | – | –
2 | CCCCCCCCCCCC[N+](C)(C)CCC[N+](C)(C)CCCCCCCCCCCC.[Br-].[Br-] [12-3-12, reference compound] | – | not statistically different from the control | – | low transfection efficiency | – | – | – | – | – | – | – | – | best transfection efficiency; also recorded: most efficient transfection agent | predominantly hexagonal morphology
